Results on one sequence are retold here after patent US12565680B2, “Cancer neoantigens and their utilities in cancer vaccines and TCR-based cancer immunotherapy” (THE METHODIST HOSPITAL SYSTEM, priority 2018, dated 2026).

The experiment relates to 135TIL. The experiment in a line: TCR β CDR3 repertoire analysis. Set-up: species or system human. The note with it: TCRβ CDR3 profiling. The text has this:
To address this issue, PCDHB16 neoantigen-specific CD4^+ T cells were isolated by FACS sorting of PCDHB16-neoantigen T cells from freshly generated bulk T cells after stimulated PCDHB16 neoepitope peptide-pulsed 135EBV-B cells. Using the similar approach, MPG-specific CD8+ T cells were also purified from freshly generated bulk T cells after stimulated MPG neoepitope peptide-pulsed 135EBV-B cells. Genomic DNAs were isolated from the two purified neoantigen-specific T cell populations, as well as the parental bulk T cells, and used as templates for TCR β-chain CDR3 repertoire amplification. […] After the amplicons (from PCDHB16-, MPG-specific T cells and bulk 135TIL) were subjected to deep-sequenced via next-generation sequencing (reads>100,000 per sample), followed by bioinformatic analysis and TCR repertoire alignment. […] The relative TCR sequence frequencies that were identical to those in PCDHB16-specific T cells and MPG-specific T cells were determined in total 135TIL cell population (FIG. 10F). […]
Cytokine Secretion Assay-Detection Kit (MACS Miltenyi Biotec) was used in cell-surface IFN-γ staining based on a commercial protocol. […] Finally cells were washed with cold buffer and ready for flow cytometric analysis. […]

Turning to “ENSPLGTEFPLNYALDLDVGSNNVQ [PCDHB16, immunodominant MHC-II neoantigen of patient #135]”, the “neoantigen-specific TCRs in the total 135TIL TCRs” value was 36%.
